Assay results as given in ChEMBL document CHEMBL4387701, “H2depda: An acyclic adjuvant potentiates meropenem activity in vitro against metallo-β-lactamase-producing enterobacterales” (Eur J Med Chem, 2019).
Converted amounts (≈) assume the structure as drawn. The source made the active and inactive calls. No cut-off for these calls is given here.

What was measured:
[1] = molecular target: T1, Metallo-beta-lactamase NDM-4 (Escherichia coli) (UniProt H6WZS9); assay: Inhibition of NDM4 in Escherichia coli isolate 3 assessed as potentiation of meropenem-induced antibacterial activity by measuring meropenem MIC after 24 hrs by broth microdilution assay (reference value: 1280 ug/ml)
T1 sequence (whole entry): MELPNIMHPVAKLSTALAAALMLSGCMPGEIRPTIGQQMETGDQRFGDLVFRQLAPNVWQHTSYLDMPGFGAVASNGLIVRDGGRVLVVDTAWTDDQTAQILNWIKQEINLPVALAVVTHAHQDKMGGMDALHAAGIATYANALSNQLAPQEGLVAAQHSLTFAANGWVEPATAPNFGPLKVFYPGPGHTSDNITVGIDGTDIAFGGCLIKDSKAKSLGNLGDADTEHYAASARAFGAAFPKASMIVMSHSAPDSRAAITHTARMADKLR

[2] = tested on: Enterobacter cloacae; assay: Inhibition of IMP4 in Enterobacter cloacae isolate 16 assessed as potentiation of meropenem-induced antibacterial activity by measuring meropenem MIC after 24 hrs by broth microdilution method (reference value: 64 ug/ml)
[3] = tested on: Escherichia coli ATCC 25922; assay: Inhibition of IMP-4 in Escherichia coli ATCC 25922 assessed as potentiation of meropenem-induced antibacterial activity by measuring zone of inhibition by agar disk diffusion method
[4] = molecular target: T1, Metallo-beta-lactamase NDM-4 (Escherichia coli); assay: Inhibition of Escherichia coli isolate 3 NDM4 assessed as potentiation of meropenem-induced antibacterial activity by measuring reduction in meropenem MIC after 24 hrs by broth microdilution method relative to meropenem alone
[5] = molecular target: T1, Metallo-beta-lactamase NDM-4 (Escherichia coli); assay: Inhibition of NDM4 in Escherichia coli ATCC 25922 assessed as potentiation of meropenem-induced antibacterial activity by measuring zone of inhibition by agar disk diffusion method
[6] = tested on: Klebsiella pneumoniae; assay: Effect on growth of Klebsiella pneumoniae isolate 13 after 24 hrs by broth microdilution method; format: organism-based
[7] = tested on: Escherichia coli; assay: Effect on growth of NDM4-positive Escherichia coli assessed as bacterial growth at 64 ug/mL after 24 hrs by broth microdilution method relative to control; format: organism-based
[8] = tested on: Citrobacter freundii; assay: Inhibition of NDM1 in Citrobacter freundii clinical isolate 7 assessed as potentiation of meropenem-induced antibacterial activity by measuring meropenem MIC after 24 hrs by broth microdilution assay
[9] = tested on: Escherichia coli; assay: Inhibition of IMP4 in Escherichia coli isolate 11 assessed as potentiation of meropenem-induced antibacterial activity by measuring meropenem MIC after 24 hrs by broth microdilution method (reference value: 32 ug/ml)
[10] = tested on: HeLa; assay: Cytotoxicity against human HeLa cells assessed as inhibition of growth after 24 hrs by CCK8 assay; format: cell-based
[11] = tested on: Escherichia coli; assay: Inhibition of IMP4 in Escherichia coli isolate 14 assessed as potentiation of meropenem-induced antibacterial activity by measuring meropenem MIC after 24 hrs by broth microdilution method (reference value: 16 ug/ml)
[12] = tested on: Proteus mirabilis; assay: Inhibition of IMP4 in Proteus mirabilis isolate 19 assessed as potentiation of meropenem-induced antibacterial activity by measuring meropenem MIC after 24 hrs by broth microdilution method (reference value: 320 ug/ml)
[13] = tested on: Escherichia coli; assay: Inhibition of NDM-7 in Escherichia coli isolate 2 assessed as potentiation of meropenem-induced antibacterial activity by measuring meropenem MIC after 24 hrs by broth microdilution assay (reference value: 640 ug/ml)
[14] = molecular target: T1, Metallo-beta-lactamase NDM-4 (Escherichia coli); assay: Inhibition of Escherichia coli NDM4 assessed as potentiation of meropenem-induced antibacterial activity by measuring reduction in bacterial growth at 64 ug/mL after 24 hrs by broth microdilution method relative to control
[15] = tested on: Enterobacter cloacae; assay: Inhibition of NDM1 in Enterobacter cloacae isolate 4 assessed as potentiation of meropenem-induced antibacterial activity by measuring meropenem MIC after 24 hrs by broth microdilution assay (reference value: 640 ug/ml)
[16] = tested on: Enterobacter cloacae; assay: Inhibition of IMP4 in Enterobacter cloacae isolate 15 assessed as potentiation of meropenem-induced antibacterial activity by measuring meropenem MIC after 24 hrs by broth microdilution method (reference value: 32 ug/ml)
[17] = molecular target: T1, Metallo-beta-lactamase NDM-4 (Escherichia coli); assay: Inhibition of Escherichia coli NDM4 assessed as potentiation of meropenem-induced antibacterial activity by measuring bacterial growth rate at 64 ug/mL after 24 hrs in presence of ZnCl2 by broth microdilution method relative to control
[18] = tested on: Escherichia coli; assay: Effect on growth of Escherichia coli isolate 14 after 24 hrs by broth microdilution method; format: organism-based
[19] = tested on: Escherichia coli; assay: Effect on growth of Escherichia coli isolate 11 after 24 hrs by broth microdilution method; format: organism-based
[20] = Inhibition of Stenotrophomonas maltophilia NDM1 expressed in Escherichia coli BL21 (DE3) expressing measured after 15 minutes at interval of 60 secs
[21] = tested on: Citrobacter freundii; assay: Effect on growth of Citrobacter freundii isolate 7 after 24 hrs by broth microdilution assay; format: organism-based
[22] = tested on: Escherichia coli ATCC 25922; assay: Inhibition of IMP-4 in Escherichia coli ATCC 25922 assessed as potentiation of meropenem-induced antibacterial activity by measuring diameter of inhibition zone measured after 18 hrs by agar disk diffusion method
[23] = tested on: Enterobacter cloacae; assay: Effect on growth of Enterobacter cloacae isolate 5 after 24 hrs by broth microdilution assay; format: organism-based
[24] = tested on: Klebsiella pneumoniae; assay: Inhibition of IMP4 in Klebsiella pneumoniae isolate 13 assessed as potentiation of meropenem-induced antibacterial activity by measuring meropenem MIC after 24 hrs by broth microdilution method (reference value: 320 ug/ml)
[25] = tested on: Klebsiella pneumoniae; assay: Effect on growth of Klebsiella pneumoniae isolate 10 after 24 hrs by broth microdilution method; format: organism-based
[26] = molecular target: T1, Metallo-beta-lactamase NDM-4 (Escherichia coli); assay: Inhibition of NDM4 in Escherichia coli isolate 3 assessed as potentiation of meropenem-induced bactericidal activity by measuring bacterial killing in early exponential phase at 64 ug/ml incubated for 24 hrs followed by replating on agar plates for 16 to 18 hrs and measured up to 24 hrs by time kill assay; settings: TDE = time-dependent effect
[27] = tested on: Enterobacter cloacae; assay: Inhibition of IMP4 in Enterobacter cloacae clinical isolate 15 assessed as potentiation of meropenem-induced antibacterial activity by measuring reduction in meropenem MIC after 24 hrs by broth microdilution method (reference value: 32 ug/ml)
[28] = tested on: Escherichia coli; assay: Effect on growth of Escherichia coli isolate 3 after 24 hrs by broth microdilution assay; format: organism-based
[29] = Hemolytic activity in sheep RBC at 1000 ug/ml measured after 1 hr relative to control; format: ADME, cell-based, Ovis aries, Erythrocyte; settings: sheep red blood cells (erythrocytes), read-out: Activity
[30] = tested on: Klebsiella pneumoniae; assay: Effect on growth of Klebsiella pneumoniae isolate 12 after 24 hrs by broth microdilution method; format: organism-based
[31] = tested on: Escherichia coli; assay: Inhibition of NDM1 in Escherichia coli isolate 8 assessed as potentiation of meropenem-induced antibacterial activity by measuring meropenem MIC after 24 hrs by broth microdilution assay (reference value: 320 ug/ml)
[32] = tested on: Enterobacter cloacae; assay: Effect on growth of Enterobacter cloacae isolate 6 after 24 hrs by broth microdilution assay; format: organism-based
[33] = Cytotoxicity against human HeLa cells assessed as inhibition of growth at 1000 ug/mL after 24 hrs by CCK8 assay relative to control; format: cell-based; settings: read-out: GI
[34] = tested on: Proteus mirabilis; assay: Effect on growth of Proteus mirabilis isolate 19 after 24 hrs by broth microdilution method; format: organism-based
[35] = tested on: Escherichia coli; assay: Inhibition of NDM1 in Escherichia coli isolate 9 assessed as potentiation of meropenem-induced antibacterial activity by measuring meropenem MIC after 24 hrs by broth microdilution assay

MIC [1] [µg/mL]	MIC [2] [µg/mL]	inhibition zone (IZ) [3] [mm]	fold change (FC) [4]	inhibition zone (IZ) [5] [mm]	MIC [6] [µg/mL]	Activity [7] [%]	MIC [8] [µg/mL]	MIC [9] [µg/mL]	MIC [11] [µg/mL]	MIC [12] [µg/mL]	MIC [13] [µg/mL]	inhibition [14]	MIC [15] [µg/mL]	MIC [16] [µg/mL]	inhibition [17] [%]	MIC [18] [µg/mL]	MIC [19] [µg/mL]	IC50 [20] [nM]	Structure (SMILES)	IC50 [10] [µg/mL]	further results
< 0.0312	2	15.9	41000	21.4	32 (≈ 56.1 µM)	95	1	4	4	2	0.0625	Active	0.0625	0.5	81	32 (≈ 56.1 µM)	64 (≈ 112 µM)	40	COc1ccc(CN(CCN(Cc2ccc(OC)cc2)Cc2cccc(C(=O)O)n2)Cc2cccc(C(=O)O)n2)cc1	> 1000	MIC [21]: 32 µg/mL (≈ 56.1 µM); inhibition zone (IZ) [22]: 2 to 5 mm; MIC [23]: 64 µg/mL (≈ 112 µM); MIC [24]: 4 µg/mL; MIC [25]: 64 µg/mL (≈ 112 µM); inhibition [26]: Tde; fold change (FC) [27]: 64; MIC [28]: 64 µg/mL (≈ 112 µM); hemolysis at 1 h, 1000 ug/ml [29]: 2.94%; MIC [30]: 32 µg/mL (≈ 56.1 µM); MIC [31]: 0.0625 µg/mL; MIC [32]: 32 µg/mL (≈ 56.1 µM); inhibition at 24 h, 1000 ug/mL [33]: < 50%; MIC [34]: 32 µg/mL (≈ 56.1 µM); MIC [35]: 0.125 µg/mL
< 0.0312	2	18.3	41000	20.2	32 (≈ 96.9 µM)	95	1	4	4	2	0.125	Active	0.25	0.5	81	32 (≈ 96.9 µM)	64 (≈ 194 µM)	170	O=C(O)c1cccc(CNCCNCc2cccc(C(=O)O)n2)n1	> 1000	MIC [21]: 32 µg/mL (≈ 96.9 µM); inhibition zone (IZ) [22]: 2 to 5 mm; MIC [23]: 64 µg/mL (≈ 194 µM); MIC [24]: 4 µg/mL; MIC [25]: 64 µg/mL (≈ 194 µM); inhibition [26]: Tde; fold change (FC) [27]: 64; MIC [28]: 32 µg/mL (≈ 96.9 µM); hemolysis at 1 h, 1000 ug/ml [29]: 0.1%; MIC [30]: 64 µg/mL (≈ 194 µM); MIC [31]: 0.0625 µg/mL; MIC [32]: 32 µg/mL (≈ 96.9 µM); inhibition at 24 h, 1000 ug/mL [33]: < 50%; MIC [34]: 32 µg/mL (≈ 96.9 µM); MIC [35]: 0.25 µg/mL
